Source: publication PMC12194779, “Synergistic Insecticidal Activity of Plant Volatile Compounds: Impact on Neurotransmission and Detoxification Enzymes in Sitophilus zeamais” (Insects, 2025)
≈ marks a conversion by molar mass, not a printed value. Where “and” joins values, the source holds several entries; their conditions need not be identical. Equal entries are not always repeated. Where two headings read alike, the source gives them in different places.

How the values were obtained:
[1] = tested on: glutathione S-transferase (GST) activity in S. zeamais; assay: GST activity assay (modified Habig) with S. zeamais protein extract; format: biochemical, Sitophilus zeamais; details: 120 mg/L
Method: (§1) Enzymatic assays were performed in the assay buffer, consisting of 0.1 M potassium phosphate buffer (pH 7.2). The compounds and mixtures evaluated in the in vitro assays were prepared in the same buffer supplemented with 0.5% (v/v) Triton X-100 (Sigma-Aldrich®, Saint Louis, MO, USA).
(§2) A modified version of the method described by Oviedo et al. was used. Adults of S. zeamais (8 g; ~3125 insects) were frozen in liquid nitrogen, homogenized in a 1:10 ratio with assay buffer, and centrifuged at 13,000× g for 60 min at 4 °C. The supernatant was filtered, and 20 mM benzamidine was added. The extracts were stored in 5 mL aliquots at −20 °C. Preliminary assays were performed to quantify the specific activity of AChE (0.02–1.00 U/mL), GST (0.1–0.8 U/mL), and CAT (0.1–25 U/mL), and to optimize assay conditions (enzyme dilution: 1/8 to 1% v/v; substrate concentrations: 2 × km or within assay linearity). Each experiment was performed independently three times, with three technical replicates per experiment.
A modified version of Habig’s method was used. The protein extract (50 µL; 0.59 U/mL) was incubated with 50 µL of the compound or mixture (120 mg/L), followed by 50 µL each of CDNB and reduced glutathione (GSH). Kinetic absorbance was measured at 340 nm for 8 min. Blanks (without substrate) and quercetin (positive control) were included. Inhibition (%) was calculated using Equation (5), and treatment differences were evaluated via parametric ANOVA (α = 0.05) in GraphPad Prism 8.0.2 [42, 43]. Each experiment was performed independently three times, with three technical replicates per experiment.(5) % Inhibition=1−Am−AB/AC ×100 where Am is the absorbance of the sample, AB is the absorbance of the blank, and AC is the absorbance of the negative control.

[2] = tested on: AChE of S. zeamais; assay: AChE activity assay (modified Ellman) with S. zeamais protein extract; format: biochemical, Sitophilus zeamais; set-up: key to AChE Effect Inhibitor Type: C: competitive inhibitor; NC: non-competitive inhibitor; details: for AChE Effect Inhibitor Type: Lineweaver–Burk; for AChE Effect IC50 ± SD / Ki: S. zeamais protein extract; for Ki: read-out: AChE Effect ki ± SD (inhibitory constant); for AChE inhibition: 120 mg/L
Method: The compounds and mixtures evaluated in the in vitro assays were prepared in the same buffer supplemented with 0.5% (v/v) Triton X-100 (Sigma-Aldrich®, Saint Louis, MO, USA).
The supernatant was filtered, and 20 mM benzamidine was added. The extracts were stored in 5 mL aliquots at −20 °C. Preliminary assays were performed to quantify the specific activity of AChE (0.02–1.00 U/mL), GST (0.1–0.8 U/mL), and CAT (0.1–25 U/mL), and to optimize assay conditions (enzyme dilution: 1/8 to 1% v/v; substrate concentrations: 2 × km or within assay linearity).
Then, 50 µL of DTNB and 50 µL of ATChI were added. […] Inhibition percentages were calculated using Equation (5).

[3] = tested on: catalase (CAT) activity in S. zeamais; assay: CAT activity assay (adapted Sinha) with S. zeamais protein extract; format: biochemical, Sitophilus zeamais; details: 120 mg/L
Method: as §1, §2
Sinha’s method was adapted. In Eppendorf tubes, 100 µL of protein extract (24.77 U/mL) was mixed with 100 µL of the compound or mixture (120 mg/L) and incubated at 37 °C for 15 min. Then, 200 µL of H2O2 was added and shaken for 2.5 min. The reaction was stopped by adding 600 µL of K2Cr2O7, followed by incubation at 100 °C for 10 min. A 200 µL aliquot was transferred to a 96-well plate, and absorbance was recorded at 570 nm. Blanks and sodium azide (positive control) were used. The percentage of inhibition was calculated using Equation (5). Differences among treatments were analyzed via ANOVA (α = 0.05) in GraphPad Prism. Each experiment was performed independently three times, with three technical replicates per experiment.

[4] = tested on: Sitophilus zeamais; format: in vivo; details: for Contact Toxicity LD50i (LC-95%): mixtures and their components (Table 3); for Contact Toxicity LD90 (95% FL) / Contact Toxicity LD50 (95% FL): topical, 24 h after exposure
Method: (§3) The insects used in this study were Sitophilus zeamais Motschulsky (Coleoptera: Curculionidae), identified by the Instituto Colombiano Agropecuario (ICA) under report number R3823M0000425. […] The adult insects used in all the experiments were 6 to 10 days post-emergence.
Groups of 10 insects, previously placed in Petri dishes, were immobilized by exposure to low temperatures (0 °C). An initial dose of 50.0 µg per adult was applied topically to the dorsal thorax of each insect using aliquots of 0.20 µL from 0.25 mg/µL solutions in n-hexane. […] All treatments were performed in two independent experiments, each with four replicates. Insect mortality was assessed after 24 h, and mortality percentages were calculated using Abbott’s correction formula (Equation (1)).
(§4) Mixtures predicted by the RSM were prepared based on mole fractions. […] Four replicates were performed for each treatment and control across two independent experimental runs.
(§5) Dose reduction indices (DRIs) were also calculated to estimate how much the dose of each compound in a synergistic combination could be reduced to achieve a 50% effect (Equation (4)). DRIs were interpreted as favorable when >1, neutral at 1, and unfavorable when <1.

[5] = tested on: Sitophilus zeamais; assay: whole plant or invertebrate; details: for EC90: read-out: Fumigant Toxicity LC90 (95% FL)
Method: as §3
The treated disks were affixed to the inner surface of the screw cap of 22 mL glass vials. […] All treatments were performed in two independent experiments, each with five replicates.
as §4
as §5, with “<1. Values above the log DRI = 0 line indicate favorable dose reductions.(4) (IRD)i=CL50i(fax)i/(1−(fax)i)^1/mi/(D)i” for “<1.”

[6] = set-up: method as in doi:10.1016/B978-0-12-819092-0.00021-2; details: cited from earlier work
[7] = tested on: S. zeamais; details: cited from earlier work
[8] = 1 ppm, after 14 days; cited from earlier work
[9] = tested on: S. zeamais; set-up: method as in PMID 21173724, PMID 22236213; details: cited from earlier work
[10] = Sitophilus zeamais, 24 h, read-out: Fumigant Toxicity LC50i (LC-95%)
[11] = Sitophilus zeamais, in Homo sapiens, 24 h, read-out: Fumigant Toxicity LC50 (95% FL)
[12] = Sitophilus zeamais, in Homo sapiens, 24 h

CC(C)=C1CC[C@H](C)CC1=O [Compound C2, S-(−)-Pulegone]
GST Inhibition λ340 (%) [1]: 4.3%
AChE inhibition type (Lineweaver–Burk plots), in words [2]: competitive inhibition
AChE inhibition, times higher than the R-enantiomer (C1) [2]: 2.3 times
AChE Effect Inhibitor Type [2]: C
AChE Effect IC50 ± SD [2]: 36.60 ± 3.29 mg/L
Ki [2]: 50.3 ± 0.74 µM
CAT Inhibition λ570 nm (%) [3]: 2.4%
Contact Toxicity LD50i (LC-95%) [4]: 7.44 µg/Adult
Contact Toxicity LD90 (95% FL) [4]: 9.64 (9.05–10.54) µg/Adult
LC50 [5, 10]: 0.97 µg/mL
LC50 [5, 11]: 0.97 µg/mL and 6.37 µM
EC90 [5, 12]: 1.68 µg/mL and 11.1 µM

CC(C)=C1CC[C@@H](C)CC1=O [Compound C1, R-(+)-Pulegone]
GST Inhibition λ340 (%) [1]: 2.4%
AChE inhibition [2]: 33.52%
CAT Inhibition λ570 nm (%) [3]: 4.3%
Contact Toxicity LD50i (LC-95%) [4]: 4.85 µg/Adult
Contact Toxicity LD90 (95% FL) [4]: 7.40 (6.79–8.28) µg/Adult
LC50 [5, 10]: 0.58 µg/mL
LC50 [5, 11]: 0.58 µg/mL and 3.81 µM
EC90 [5, 12]: 0.92 µg/mL and 6.07 µM
LD50 (i.p.) ([6]; i.p.): 73 mg/kg
LD50 (i.v.) ([6]; i.v.): 80 mg/kg
oral LD50 [6]: 810 mg/kg

C=CCc1ccc(O)c(OC)c1 [Compound C26, Eugenol]
GST Inhibition λ340 (%) [1]: 24.3%
CAT Inhibition λ570 nm (%) [3]: 19.9%
Contact Toxicity LD50i (LC-95%) [4]: 20.90 µg/Adult
Contact Toxicity LD50 (95% FL) [4]: 20.9 (19.22–22.65) µg/Adult
Contact Toxicity LD90 (95% FL) [4]: 30.82 (28.35–34.42) µg/Adult

CC1=CC[C@H](C(C)C)C=C1 [Compound C14, R-(−)-α-Phellandrene]
LC50 in vapor-phase assays without physical barriers ([7]; previous reports): 72.7 mg/L (≈ 534 µM)
Fumigant Toxicity LC50 (95% FL) ([5]; S. zeamais adults, 24 h after exposure): 88.87 (69.70–108.27) mg L^−1
LC50 ([5]; read-out: Fumigant Toxicity LC50 (95% FL), S. zeamais adults, 24 h after exposure): 652 µM

CC1(C)[C@H](C(=O)O[C@H](C#N)c2cccc(Oc3ccccc3)c2)[C@@H]1C=C(Br)Br [deltamethrin]
mortality [8]: 45%

Cc1ccc(C(C)C)cc1O [Compound C25, Carvacrol]
GST Inhibition λ340 (%) [1]: 19.3%
AChE inhibition [2]: 46.85%
Contact Toxicity LD50i (LC-95%) [4]: 8.71 µg/Adult
Contact Toxicity LD90 (95% FL) [4]: 13.45 (12.19–15.38) µg/Adult
oral LD50 [6]: 2462.23 mg/kg

C=C(C)[C@@H]1CC=C(C)C(=O)C1 [Compound C4, R-(−)-Carvone]
Fumigant LC50 reported in 7-day exposure assays ([7]; 7-day exposure): 2.76 mg/L
Contact Toxicity LD50 (95% FL) [4]: 16.89 (14.56–19.35) µg/Adult
Contact Toxicity LD90 (95% FL) [4]: 28.45 (24.99–34.24) µg/Adult
LC50 [5, 11]: 1.42 µg/mL and 9.48 µM
EC90 [5, 12]: 2.17 µg/mL and 14.4 µM
LC50 ([5]; Sitophilus zeamais, read-out: LC50 values, fumigant activity (Figure 3)): 1.42 µg/mL
Contact LD50 previously reported for 7-day assays [9]: 2.79 µg/adult

C/C=C/c1ccc(OC)cc1 [Compound C29, trans-Anethol]
GST Inhibition λ340 (%) [1]: ~ 17.5% and 17.5%
AChE inhibition type (Lineweaver–Burk plots), in words [2]: competitive inhibition
AChE Effect Inhibitor Type [2]: C
AChE Effect IC50 ± SD [2]: 4.24 ± 0.36 mg/L
Ki [2]: 43.6 ± 3.46 µM
AChE potency, times more potent than isomer estragole (C11) ([2]; ratio of IC50): 6.5 times
CAT Inhibition λ570 nm (%) [3]: 23.3%
Contact Toxicity LD90 (95% FL) [4]: 46.08 (41.56–52.95) µg/Adult
